Source: patent US7786079B2, “Substituted nonadepsipeptides” (priority 2004, dated 2010)
*1 amine or outer side, *2 acyl side, *3 side chain or, on linkers, in order; H or OH if unused. Where a SMILES comes first, the peptide text is derived from it. Bridges are numbered along the chain shown (N, C = ends). Side-chain parts run from the residue outwards. [ ]: non-standard residue; d: D form. The star is where a group is joined. X1 = NC(=O)[C@@H](OC(=O)c1ccc(N2CCOCC2)nc1)[C@H](N[*:1])C(=O)[*:2]; Phe(3R-OH) = O=C([C@@H](N[*:1])[C@H](O[*:3])c1ccccc1)[*:2]; X2 = NC(=O)[C@@H](OC(=O)Nc1ccccc1)[C@H](N[*:1])C(=O)[*:2]; NH(4-morpholinophenyl) = c1cc(N2CCOCC2)ccc1N*; Asn(3S-OH) = NC(=O)[C@@H](O)[C@H](N)C(=O)O; Leu(3R-OH) = CC(C)[C@@H](O)[C@H](N)C(=O)O; aThr = C[C@H](O)[C@H](N)C(=O)O; CO = O=C([*:1])[*:2]

Legend:
[1] = tested on: Staphylococcus aureus 133; format: cell-based
Protocol: (§1) Determination of the Minimum Inhibitory Concentration (MIC): The MIC is determined in the liquid dilution test in accordance with the NCCLS guidelines. […] The cultures are incubated at 37° C. for 18-24 hours, S. pneumoniae in the presence of 10% CO2. The lowest substance concentration in each case at which no visible bacterial growth occurs any more is defined as the MIC. The MIC values are reported in μg/ml.

E. faecium L4001 = format: cell-based
Protocol: as §1

[2] = tested on: Streptococcus pneumoniae G9a; format: cell-based
Protocol: as §1

E. faecalis ICB 27159 = format: cell-based, Entercococcus faecalis
Protocol: as §1

With CC[C@H](C)[C@@H]1NC(=O)[C@@H](CCCNC(=N)N)NC(=O)[C@H](CC(C)C)NC(=O)[C@H]([C@H](O)C(C)C)NC(=O)[C@@H](NC(=O)[C@H](CC(C)C)NC(=O)[C@H](N)CC(C)C)[C@@H](c2ccccc2)OC(=O)[C@H](CO)NC(=O)[C@H]([C@H](OC(=O)Nc2ccccc2)C(N)=O)NC(=O)CNC(=O)[C@H]([C@H](C)O)NC1=O.O=C(O)C(F)(F)F.O=C(O)C(F)(F)F [Example 2] (H-[dL]L[Phe(3R-OH)][Leu(3R-OH)]L[dR]I[aThr]G[X2]S; ester 3-C) the “MIC S. aureus 133” value [1] was 0.5 µg/mL, the “MIC E. faecium L4001” value (E. faecium L4001) was 4 µg/mL and the “MIC S. pneumoniae G9a” value [2] was 1 µg/mL. The “MIC E. faecalis ICB 27159” value (E. faecalis ICB 27159) was 1 µg/mL.

With CC[C@H](C)[C@@H]1NC(=O)[C@@H](CCCNC(=N)NC(=O)Nc2ccc(N3CCOCC3)cc2)NC(=O)[C@H](CC(C)C)NC(=O)[C@H]([C@H](O)C(C)C)NC(=O)[C@@H](NC(=O)[C@H](CC(C)C)NC(=O)[C@H](N)CC(C)C)[C@@H](c2ccccc2)OC(=O)[C@H](CO)NC(=O)[C@H]([C@H](O)C(N)=O)NC(=O)CNC(=O)[C@H]([C@H](C)O)NC1=O.O=C(O)C(F)(F)F [Example 11] (H-[dL]L[Phe(3R-OH)][Leu(3R-OH)]L[dR]([CO-NH(4-morpholinophenyl)])I[aThr]G[Asn(3S-OH)]S; ester 3-C) the “MIC S. aureus 133” value [1] was 0.5 µg/mL, the “MIC E. faecium L4001” value (E. faecium L4001) was 1 µg/mL and the “MIC S. pneumoniae G9a” value [2] was 0.5 µg/mL. The “MIC E. faecalis ICB 27159” value (E. faecalis ICB 27159) was 0.5 µg/mL.

In the case of CC[C@H](C)[C@@H]1NC(=O)[C@@H](CCCNC(=N)N)NC(=O)[C@H](CC(C)C)NC(=O)[C@H]([C@H](O)C(C)C)NC(=O)[C@@H](NC(=O)[C@H](CC(C)C)NC(=O)[C@H](N)CC(C)C)[C@@H](c2ccccc2)OC(=O)[C@H](CO)NC(=O)[C@H]([C@H](OC(=O)c2ccc(N3CCOCC3)nc2)C(N)=O)NC(=O)CNC(=O)[C@H]([C@H](C)O)NC1=O.O=C(O)C(F)(F)F.O=C(O)C(F)(F)F [Example 17] (H-[dL]L[Phe(3R-OH)][Leu(3R-OH)]L[dR]I[aThr]G[X1]S; ester 3-C), the “MIC S. aureus 133” value [1] is reported as 0.5 µg/mL, the “MIC E. faecium L4001” value (E. faecium L4001) is reported as 4 µg/mL and the “MIC S. pneumoniae G9a” value [2] is reported as 0.5 µg/mL. For the same compound, the “MIC E. faecalis ICB 27159” value (E. faecalis ICB 27159) was 2 µg/mL.
